In patent US12186332B2, “Methods for overcoming WNT/beta-catenin anti-cancer resistance in leukemia stem cells” (STOWERS INSTITUTE FOR MEDICAL RESEARCH, priority 2019, dated 2025):

Tests used:
[1] = system: human T-ALL blasts and pS^552-β-cat^+ LSCs; test: Patient-derived xenografts of MRD+ pediatric T-ALL treated with [Low]DXR; assay type: in vivo; conditions: [Low]DXR 5 days, two weeks after transplantation; Pt 057, Pt 062
Excerpt: Shown is T-ALL blasts (CD45^+ c-Kit^−ve CD3^+) in Pt 057. Graphs indicate frequency of human CD45^+ cells (%)+SD.
Graphs indicate frequency of human CD45^+ cells (%)±SD.

[2] = system: BM cells isolated from leukemic double mutants (LSCs, HSPCs); test: In vitro treatment of BM cells from leukemic mice; assay type: cell-based, mouse; conditions: 11, 33 or 100 nM, 72 hours
Description: Doxorubicin, 0105375, and thioguanosine were added to 11, 33 or 100 nM and cultured for 72 hours and analyzed by flow cytometry for LSCs as in FIGS. 1A-1E. Fold change before and after culture for each population is indicated relative to equivalent vehicle control concentrations.
Doxorubicin, 0105375, and thioguanosine were added to 11, 33 or 100 nM and cultured for 72 hours and analyzed by flow cytometry for HSPCs as in FIGS. 1A-1E. Fold change before and after culture for each population is indicated relative to equivalent vehicle control concentrations.
Bone marrow cells from leukemic mice at 8 weeks post-induction were cultured overnight at 5-20×10^4 cells per well in 96-well U-bottom tissue culture plates (Becton, Dickinson and Company; Cat. No. 353077) in HSC expansion media in low O2 conditions as previously described (Perry et al. 2011). Doxorubicin (Sigma; D1515), 0105375 (University of Kansas CMLD compound), or Thioguanosine was mixed with HSC expansion media and added to the cultures to obtain final concentrations of 11, 33, 100 nM. Equivalent amounts of DMSO alone (vehicle control) were added to parallel cultures for comparison. Half-media changes were performed approximately every 24 hours. Cultures were analyzed after 72 hours exposure to the indicated drug.

[3] = system: immune checkpoint (IC) and Wnt target gene loci; test: ATAC-seq chromatin accessibility in LSCs and blast cells; assay type: in vivo, mouse; conditions: [Low]DXR
Excerpt: Inhibitory IC gene loci are highlighted (blue dots).
Cells were sorted from BM pooled from 20 leukemia mice treated with [Low]DXR and 8 leukemia mice treated with vehicle control at 15-30 k/replicate.
FIG. 4M is metagene analysis of LSCs showing chromatin accessibility near the transcriptional start site (TSS) in immune-checkpoint gene loci (listed) compared with all loci showing significant changes. Gene synonyms are listed here in parentheses Hvem (Tnfrsf14), Gal-9 (Lgals9), Ox401 (Tnfsf4), Tnfsf7 (Cd70), B7-H2 (Icosl), B7-H3 (Cd276), B7-H4 (Vtcn1), Pd1 (Pdcd1), Tnfrsf7 (Cd27), Tim3 (Havcr2), Ox40 (Tnfrsf4).
Cells were sorted from BM pooled from 20 leukemia mice treated with [Low]DXR and 8 leukemia mice treated with vehicle control. Experiment was repeated 1 time with similar results.
ATAC-seq was performed in LSCs and blast cells following the protocol described in Buenrostro et al., ATAC-seq: A Method for Assaying Chromatin Accessibility Genome-Wide. Curr Protoc Mol Biol. 2015 Jan. 5,109:21.29.1-9, the entirety of which is incorporated herein by reference. Cells were sorted from BM pooled from 20 leukemia mice treated with [Low]DXR and 8 leukemia mice treated with vehicle control at 15-30 k/replicate.
Collected cells were subject to transposition reaction and purification. In brief, 30,000 FACS-sorted blast cells were washed using 50 μl cold 1×PBS and centrifuged at 500 g for 5 min in a pre-chilled (4° C.) fixed-angle centrifuge. Cells were lysed using cold lysis buffer (10 mM Tris-HCl, pH 7.4, 10 mM NaCl, 3 mM MgCl2 and 0.1% IGEPAL CA-630). Following the lysis, the pellet was resuspended in the transposase reaction mix. The transposition reaction mix contains 25 μl TD (2× reaction buffer), 2.5 μl TDE1 (Nextera Tn5 Transposase) and 22.5 μl Nuclease Free H2O. Resuspended nuclei in the transposition reaction mix. Incubated the transposition reaction at 37° C. for 30 min. Immediately following transposition, purification was performed by using a Qiagen MinElute PCR Purification Kit. Eluted transposed DNA in 10 μl Elution Buffer (10 mM Tris buffer, pH 8). Transposed DNA fragments were amplified by PCR. The PCR mixture contains 10 μl transposed DNA, 10 μl Nuclease Free H2O, 2.5 μl 25 μM Custom Nextera PCR Primer 1, 2.5 μl 25 μM Custom Nextera PCR Primer 2 (Contains Barcode) and 25 μl NEBNext High-Fidelity 2×PCR Master Mix. The thermal cycle is as follows: 1 cycle of 72° C. for 5 min, 98° C. for 30 sec, 5 cycles of 98° C. for 10 sec, 63° C. for 30 sec, 72° C. for 1 min. To reduce GC and size bias in PCR, the appropriate number of PCR cycles is determined using qPCR. To run a qPCR side reaction, combine the following in qPCR compatible consumables: 5 μl of previously PCR amplified DNA, 4.41 μl Nuclease Free H2O, 0.25 μl 25 μM Customized Nextera PCR Primer 1, 0.25 μl 25 μM Customized Nextera PCR Primer 2, 0.09 μl 100×SYBR Green I, 5 μl NEBNext High-Fidelity 2×PCR Master Mix. Using a qPCR instrument, cycle as follows: 1 cycle of 98° C. for 30 sec, 20 cycles of 98° C. for 10 sec, 63° C. for 30 sec, 72° C. for 1 min. To calculate the additional number of cycles needed, plot linear Rn versus cycle and determine the cycle number that corresponds to […] fluorescent intensity. Run the remaining 45 μl PCR reaction to the cycle number determined by qPCR. Cycle as follows: 1 cycle of 98° C. for 30 sec, N cycles (determined using qPCR) of 98° C. for 10 sec, 63° C. for 30 sec, 72° C. for 1 min.

[4] = system: Wnt-signaling reporter activity (TCF/Lef:H2B-GFP); test: TCF/Lef:H2B-GFP reporter mice; assay type: in vivo, mouse; conditions: low-dose DXR (legend: [Low]nanoDXR, 3 hours post-injection)
Excerpt: Percent of TCF/Lef:H2B-GFP^+ cells for each population are indicated.

[5] = system: Akt-enhanced β-catenin activity (TOP-Luc); test: HTS TOPFlash/FOPFlash luciferase reporter dose-response; assay type: cell-based

## COc1cccc2c1C(=O)c1c(O)c3c(c(O)c1C2=O)C[C@@](O)(C(=O)CO)C[C@@H]3O[C@H]1C[C@H](N)[C@H](O)[C@H](C)O1 [DXR, doxorubicin]
[1]
  engraftment of bulk blast cells: not significantly changed
  pS552-β-cat+ LSCs: significantly reduced
[2]
  effect on HSPCs relative to vehicle: lower effect
  effect on LSCs relative to vehicle: significantly reduced
[3]; LSCs
  IC loci with increased accessibility: 3 loci
  IC loci with reduced accessibility: 13 loci
[3]; blast cells
  IC loci with increased accessibility: 10
  IC loci with reduced accessibility: 4
[3]; not in blast cells
  accessibility in the promoter regions of Wnt target genes in LSCs: reduced
[4]
  Wnt-signaling reporter activity: significantly inhibits
[5]; HEK-293 TOPFlash vs FOPFlash Akt^Act βcat^Act cells
  concentration at which Akt-enhanced β-catenin activity (TOP-Luc) is specifically inhibited (compare to FOP-Luc control): lower than 1 μM
[5]; higher concentrations (above 1 μM)
  specificity (FOP-Luc) at higher concentrations: reduced specificity
